Experimental data reported in the NIST ThermoML archive (doi:10.1016/j.fluid.2013.06.019).
± gives the expanded uncertainty stated by the source.

settings: Crystal; Heating/Cooling curves

SMILES | Triple point temperature [K]
O=C=O [carbon dioxide] | 216.6 ± 2
C=C(F)C(F)(F)F [2,3,3,3-tetrafluoro-1-propene] | 122.6 ± 2
F/C=C/C(F)(F)F [trans-1,3,3,3-tetrafluoropropene] | 168.8 ± 2
